According to patent US6056958A, “Method of treatment of arterial and venous thromboembolic disorders” (Dupont Pharmaceuticals, priority 1997, dated 2000):
Where two headings read alike, the source gives them in different places. Non-standard residues stand in square brackets, D forms with d. Residues, ends and D or L forms follow the SMILES beside them. 3Amb = NCc1cccc(C(=O)O)c1

Assays:
[1] = tested on: dog thrombosis model (carotid artery, femoral artery, femoral vein); assay: Carotid, Femoral Artery and Femoral Vein Thrombosis in Dogs (Electrolytic Injury Model); format: in vivo; conditions: for Incidence of Occlusion / Time to Occlusion / Blood Flow, Basal / Blood Flow, End: dog carotid artery; for Incidence of Occlusion: saline 44/44; for Time to Occlusion: saline 93 ±30.4; for Blood Flow, End: saline 0; for Thrombus Weight (wet, mg), left femoral vein / Thrombus Weight (wet, mg), left carotid artery: dog, P<0.05
Excerpt: Carotid, Femoral Artery and Femoral Vein Thrombosis In Dogs (Electrolytic Injury Model)
The thrombosis model used in this study is a modification of the one described by Rote et al., J. Cardiovascular Pharmacolgy, 1993, 23:194-202. The experimental procedure provides the formation of a platelet rich intravascular thrombus at the site of the electrolytically-induced lesion in the arterial side. The femoral artery and carotid artery responses to the electrolytic injury are similar to that observed in the canine coronary artery in which intimal wall injury secondary to application of a direct anodal current leads to platelet adherence with the resultant occlusive thrombus formation (Rote et al., J. Cardiovascular Pharmacolgy, 1993, 23:194-202; Mousa et al., Circulation, 1994, 89:3-12). Animals were instrumented and a 20-30 mm segment of the femoral or carotid arteries were exposed and freed from facia, and branches were tied. Anodal current was applied using an intravascular electrode Penetration of the vessel wall by the electrode was facilitated by attaching the tip of a 23 gauge hypodermic needle to the uninsulated part of the electrode. Each intra-arterial electrode was connected to the positive pole (anodal) of a dual channel stimulator (Ni-Cad battery, 9 volts connected to 250,000 Ohm potentiometer in series). The cathode was connected to a distant subcutaneous site. The current delivered to the arterial wall was monitored continuously and maintained at 200 μA. Proper positioning of the electrode in the artery was confirmed by visual inspection at the end of each experiment. In all experiments the anodal current was applied for a maximum period of 3 hours. Arterial flow was monitored throughout the experiment by placing a doppler flow probe connected to a flow meter around the distal portion of the vessel segment. Similar procedures were applied to the femoral vein. […]

αv /β3 receptor = target: T1, αv /β3 receptor (Homo sapiens, UniProt P05106+P06756); assay: αv/β3-Biotinylated Vitronectin Binding Assay; conditions: for IC50: inhibition of vitronectin binding to purified αv/β3; for Relative Binding Affinity for αv /β3 Relative to GPIIb/IIIa: ratio of IC50 values (GPIIb/IIIa over αv/β3)
T1 construct: The αv /β3 receptor was isolated from human placental extracts prepared using octylglucoside; from tissue
Excerpt: Compounds may be tested for their ability to block binding of vitronectin to the αv /β3 receptor and to block the binding of fibrinogen to GPIIb/IIIa receptor in the αv /β3 -Biotinylated Vitronectin Binding Assay and GPIIb/IIIa Receptor-Biotinylated Fibrinogen Binding Assay described below.
αv /β3 -Biotinylated Vitronectin Binding Assay
The αv /β3 receptor was isolated from human placental extracts prepared using octylglucoside. The extract was passed over an anti-αv /β3 monoclonal antibody (LM609) affinity column (prepared using LM609 and Affigel 10). The column was subsequently washed extensively at pH 7 and pH 4.5 followed by elution at pH 3. The resulting sample was concentrated by wheat germ agglutinin chromatography to provide a αv /β3 -containing sample which gave two bands on SDS-PAGE which were confirmed as αv /β3 by western blotting.
The affinity purified αv /β3 protein as described above was diluted at different levels and plated to 96 well plates (about 15 ng of αv /β3 protein per well). ELISA detection of αv /β3 -bound biotinylated vitronectin was performed as described below using fixed concentration of biotinylated vitronectin (approximately 80 nM/well). This αv /β3 receptor preparation contains the αv /β3 with no detectable levels of αv /β5 according to the gel and according to effects of blocking antibodies for the αv /β3 or αv /β5 in the ELISA.
A submaximal concentration of biotinylated vitronectin was selected based on concentration response curves with fixed αv /β3 receptor concentration and variable concentrations of biotinylated vitronectin.
The purified αv /β3 receptor is diluted with coating buffer (20 mM Tris HCl, 150 mM NaCl, 2.0 mM CaCl2, 1.0 mM MgCl2.6H2 O, 1.0 mM MnCl2.4H2 O) and coated (100 μL/well) on Costar (3590) high capacity 96-well plates overnight at 4° C. The coating solution is discarded and the plates washed once with blocking/binding buffer (B/B buffer: 50 mM Tris HCl, 100 mM NaCl, 2.0 mM CaCl2, 1.0 mM MgCl2.6H2 O, 1.0 mM MnCl2.4H2 O). The plate-immobilized αv /β3 receptor is then blocked (200 μl/well) with 3.5% BSA in B/B buffer for 2 hours at room temperature. After washing once with 1.0% BSA in B/B buffer, biotinylated vitronectin (100 μL) and either test compound (inhibitor) (11 μL) or B/B buffer w/1.0% BSA (11 μL) is added to each well. The plates are incubated 2 hours at room temperature. The plates are washed twice with B/B buffer and incubated 1 hour at room temperature with anti-biotin alkaline phosphatase (100 μL/well) in B/B buffer containing 1.0% BSA. The plates are washed twice with B/B buffer and alkaline phosphatase substrate (100 μL) is added. Color is developed at room temperature. Color development is stopped by addition of 2N NaOH (25 μL/well) and absorbance is read at 405 nm.
The inhibitory binding constant (Ki) of test agents 30 may be calculated under this assay system using Michaelis-Menten analysis. The IC50 is the concentration of test substance needed to block 50% of the vitronectin binding to the αv /β3 receptor. The IC50 for the inhibition of binding of vitronectin to the αv /β3 receptor was determined based on time averaged values for the inhibition of vitronectin binding. Thus, the inhibition of vitronectin binding for each concentration of test compound was measured every 30 seconds over a 2 hour period and the average value of inhibition of vitronectin binding over such 2 hour period was used for the determination of the IC50.

[2] = Bleeding Time in anesthetized dogs (tongue incision); conditions: dog, IV, saline 3-5
Description: (§1) A Simplate device (Organo Teknika) was applied to the surface of the tongue to make a uniform incision and blood was blotted with filter paper at 30 seconds intervals until bleeding completely stopped, with a 15 minutes cutoff time. Bleeding time was assessed before and at different intervals post-administration of test agent.

[3] = dog, in vivo
Description: Clotting Assay (Thrombin and Apothrombin Times)
Arterial blood samples were collected in 1/10th volume 3.8% sodium citrate and stored on ice for less than ten 10 minutes. Samples were centrifuged (10,000× g, 1.5 minutes) and plasma separated from cellular components. Clotting assays were performed within 30 minutes of collection in a fibrometer (BBL Bibrosystem) at 37° C. Thrombin time determinations were performed at a final thrombin concentration of 4 units/mL. Activated partial thromboplastin time (also referred to as apothrombin time) (APTT) was determined by incubating 0.1 mL plasma with 0.1 mL APTT reagent (Sigma Chemical) for three minutes, followed by addition of 0.1 mL of 25 mM CaCl2. Prothrombin time was determined by incubating 0.1 mL plasma with 0.1 mL thromboplastin, and clotting initiated by addition of 0.1 mL of 25 mM CaCl2. Assays were performed in duplicate.

[4] = dog, in vivo, iv
Description: as §1

[5] = 0.1 mg/kg IV bolus + 0.1 mg/kg IV infusion 3 hr
[6] = 0.1 mg/kg IV bolus + 0.4 mg/kg IV infusion 3 hr

T1 sequence (P06756 31-889 limits assumed): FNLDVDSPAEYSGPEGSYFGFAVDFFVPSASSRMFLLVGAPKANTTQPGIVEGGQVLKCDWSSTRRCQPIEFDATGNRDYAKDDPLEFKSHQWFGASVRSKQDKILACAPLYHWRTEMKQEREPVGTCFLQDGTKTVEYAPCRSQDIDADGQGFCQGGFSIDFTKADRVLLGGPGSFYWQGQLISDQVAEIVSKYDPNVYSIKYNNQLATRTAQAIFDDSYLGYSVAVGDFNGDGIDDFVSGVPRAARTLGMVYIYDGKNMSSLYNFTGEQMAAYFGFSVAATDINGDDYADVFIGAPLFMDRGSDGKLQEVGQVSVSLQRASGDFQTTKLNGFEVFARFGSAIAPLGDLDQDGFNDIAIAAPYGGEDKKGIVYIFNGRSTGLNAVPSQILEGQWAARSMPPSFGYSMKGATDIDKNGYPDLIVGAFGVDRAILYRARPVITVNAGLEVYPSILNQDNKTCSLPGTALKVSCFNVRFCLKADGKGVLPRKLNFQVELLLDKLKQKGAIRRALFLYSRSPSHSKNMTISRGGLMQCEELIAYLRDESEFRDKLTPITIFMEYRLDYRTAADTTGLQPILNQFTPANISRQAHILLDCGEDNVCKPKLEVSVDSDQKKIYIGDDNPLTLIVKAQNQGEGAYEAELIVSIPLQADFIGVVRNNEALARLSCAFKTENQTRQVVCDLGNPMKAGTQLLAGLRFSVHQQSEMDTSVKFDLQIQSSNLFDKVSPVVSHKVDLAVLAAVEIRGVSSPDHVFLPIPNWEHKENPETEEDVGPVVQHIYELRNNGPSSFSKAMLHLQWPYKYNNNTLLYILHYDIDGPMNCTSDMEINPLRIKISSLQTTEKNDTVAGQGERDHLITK
T1 sequence (P06756 891-1048 partner limits assumed): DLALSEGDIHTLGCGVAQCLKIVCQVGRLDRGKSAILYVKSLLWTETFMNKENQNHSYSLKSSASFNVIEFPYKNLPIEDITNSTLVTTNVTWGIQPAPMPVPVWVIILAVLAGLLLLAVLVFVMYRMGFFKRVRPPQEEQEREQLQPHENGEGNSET
T1 sequence (P05106 27-788): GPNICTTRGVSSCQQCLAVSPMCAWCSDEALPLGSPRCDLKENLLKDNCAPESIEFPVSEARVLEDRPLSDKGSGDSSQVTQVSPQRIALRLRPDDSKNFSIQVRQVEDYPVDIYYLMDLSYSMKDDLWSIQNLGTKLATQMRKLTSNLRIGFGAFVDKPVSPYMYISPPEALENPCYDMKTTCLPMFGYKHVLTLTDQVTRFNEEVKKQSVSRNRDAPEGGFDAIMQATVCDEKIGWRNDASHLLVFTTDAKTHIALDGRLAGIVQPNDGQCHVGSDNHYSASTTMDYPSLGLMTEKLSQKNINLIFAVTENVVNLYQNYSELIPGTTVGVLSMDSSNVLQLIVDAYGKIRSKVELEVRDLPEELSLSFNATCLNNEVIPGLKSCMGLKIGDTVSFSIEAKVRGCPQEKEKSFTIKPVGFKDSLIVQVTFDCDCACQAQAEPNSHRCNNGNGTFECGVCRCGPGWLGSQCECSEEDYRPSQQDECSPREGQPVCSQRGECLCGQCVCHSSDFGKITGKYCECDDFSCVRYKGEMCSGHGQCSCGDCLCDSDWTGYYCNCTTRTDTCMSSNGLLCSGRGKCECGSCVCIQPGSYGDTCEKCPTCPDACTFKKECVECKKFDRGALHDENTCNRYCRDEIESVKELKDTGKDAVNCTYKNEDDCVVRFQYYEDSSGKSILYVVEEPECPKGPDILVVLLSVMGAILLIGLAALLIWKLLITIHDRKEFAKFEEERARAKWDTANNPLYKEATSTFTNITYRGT

With `C[C@@H]1NC(=O)c2cccc(c2)CNC(=O)[C@H](CC(=O)O)NC(=O)CNC(=O)[C@H](CCCNC(=N)N)NC1=O` [Compound A, cyclo-(Ala-Arg-Gly-Asp-Mamb)] (cyclo(RGD[3Amb]A)) the “Incidence of Occlusion” value [1, 5] was 0/4, the “Time to Occlusion” value [1, 5] was > 180 min and the “Blood Flow, Basal” value ([1]; 0.1 mg/kg IV bolus + 0.1 mg/kg IV infusion 3 hr, spread ±4.7) was 29.4 cm/s. For the same molecule, the “Blood Flow, End” value ([1]; 0.1 mg/kg IV bolus + 0.1 mg/kg IV infusion 3 hr, spread ±11) was 16.3 cm/s, the “Incidence of Occlusion” value [1, 6] was 0/4 and the “Time to Occlusion” value [1, 6] was > 180 min. For the same molecule, the “Blood Flow, Basal” value ([1]; 0.1 mg/kg IV bolus + 0.4 mg/kg IV infusion 3 hr, spread ±2.7) was 30.2 cm/s, the “Blood Flow, End” value ([1]; 0.1 mg/kg IV bolus + 0.4 mg/kg IV infusion 3 hr, spread ±8.1) was 23.8 cm/s and the “Cyclic Flow Rate (frequency/hr)” value ([1]; dog femoral artery, 0.1 mg/kg IV bolus + 0.1 mg/kg IV infusion 3 hr, n=4, mean ± SD, P<0.01, saline 8 ± 5.5) was 0.5 ± 0.4 frequency/hr. For the same molecule, the “Thrombus Weight (wet, mg), left femoral vein” value ([1]; 0.1 mg/kg IV bolus + 0.4 mg/kg infusion 3 hr, n=4, mean ± SD, saline 18 ± 5) was 2 ± 1 mg, the “Thrombus Weight (wet, mg), left carotid artery” value ([1]; 0.1 mg/kg IV bolus + 0.4 mg/kg infusion 3 hr, n=4, mean ± SD, saline 53 ± 4) was 13 ± 2 mg and the “Thrombus Weight (wet, mg), left carotid artery” value ([1]; 1 mg/kg IV bolus, n=3, 200 μA, mean ± SD, saline right carotid 51 ± 4) was 14 ± 4 mg. The “Thrombus Weight (wet, mg), left femoral vein” value ([1]; 1 mg/kg IV bolus, n=3, 200 μA, mean ± SD, saline right femoral vein 18 ± 5) was 4 ± 3 mg, the IC50 (αv /β3 receptor) was 3.8 nM and the “Relative Binding Affinity for αv /β3 Relative to GPIIb/IIIa” value (αv /β3 receptor) was 107. For the same molecule, the “Bleeding Time” value ([2]; 1 mg/kg) was 3 to 4 min, the “Bleeding Time” value ([2]; 3 mg/kg) was 3 to 4 min and the “Bleeding Time” value ([2]; 10 mg/kg) was 5 to 6 min.
For `N=C(N)NCCC[C@@H]1NC(=O)[C@@H]2CCCN2C(=O)c2cccc(c2)CNC(=O)[C@H](CC(=O)O)NC(=O)CNC1=O` [Compound B, cyclo-(Pro-Arg-Gly-Asp-Mamb)] (cyclo(RGD[3Amb]P)), the “effect on apothrombin time or thrombin time” value [3] was “no effect on apothrombin time or thrombin time”, the “Bleeding Time” value ([4]; 1 mg/kg) was 3 to 4 min and the “Bleeding Time” value ([4]; 3 mg/kg) was 3 to 4 min. The “Bleeding Time” value ([4]; 10 mg/kg) was 3 to 4 min, the IC50 (αv /β3 receptor) was 0.7 nM and the “Relative Binding Affinity for αv /β3 Relative to GPIIb/IIIa” value (αv /β3 receptor) was 2171.
